The values that follow come from patent publication US20050038113A1, “Valproic acid and derivatives for the combinatorial therapeutic treatment of human cancers and for the treatment of tumor metastasis and minimal residual disease” (G2M Cancer Drugs AG, priority 2001, published 2005).

What all share (test): MTT cell viability assay
Common to all, as to format: cell-based, Mouse
What all share (settings): 40 h

Experiment [1] relates to Renca-lacZ/ErbB2 renal carcinoma cells. From the text:
(§1) Renal cell carcinoma (Renca) cells stably transfected with plasmid pZeoSV2/lacZ encoding E. coli β-galactosidase, and either with plasmids pSV2ErbB2N and pSV2neo encoding c-erbB2 and neomycin resistance (Renca-lacZ/ErbB2) (Maurer-Gebhard et al., Cancer Res. 58: 2661-2666, 1998), or plasmids pLTR-EGFR or pLTR-EGFRvIII and pSV2neo encoding epidermal growth factor (EGF) receptor, the oncogenically activated EGF receptor variant EGFRvIII, and neomycin resistance (Renca-lacZ/EGFR and Renca-lacZ/EGFRvIII) (Schmidt et al., Oncogene 18: 1711-1721, 1999) were grown in RPMI-1640 medium supplemented with 8% FBS, 2 mM L-glutamine, 100 U/ml penicillin, 100 μg/ml streptomycin, 0.25 mg/ml Zeocin and 0.48 mg/ml G418.
(§2) Tumor cells were seeded in 96 well plates at a density of 1×10^4 cells/well in normal growth medium. SKBR3, A431 and SKOV3 cells were treated for 40 h with valproic acid at a final concentration of 3 mM, or 10 ng/ml of the recombinant anti-ErbB2 single chain antibody-toxin scFv(FRP5)-ETA (Wels et al., Cancer Res. 52: 6310-6317, 1992), or 10 ng/ml of the recombinant anti-EGF receptor single chain antibody-toxin scFv(14E1)-ETA (Schmidt et al., Brit. J. Cancer 75: 1575-1584, 1997), or a combination of valproic acid with either scFv(FRP5)-ETA or scFv(14E1)-ETA at the same concentrations. Renca-lacZ/ErbB2, Renca-lacZ/EGFR and Renca-lacZ/EGFRvIII cells were treated for 40 h with valproic acid at a final concentration of 1 mM, or 10 ng/ml of the recombinant anti-ErbB2 single chain antibody-toxin scFv(FRP5)-ETA, or 1 ng/ml of the recombinant anti-EGF receptor single chain antibody-toxin scFv(14E1)-ETA, or a combination of valproic acid with either scFv(FRP5)-ETA or scFv(14E1)-ETA at the same concentrations. Control cells were grown in the absence of valproic acid or antibody-toxins. Ten μl of 10 mg/ml 3-(4,5-dimethylthiazole-2-yl)-2,5 diphenyltetrazolium bromide (MTT) (Sigma, Deisenhofen, Germany) in PBS were added to each well and the cells were incubated for another 3 h. Cells were lysed by the addition of 90 μl of lysis buffer (20% SDS in 50% dimethyl formamide, pH 4.7). After solubilization of the formazan product, the absorption at 590 nm was determined in a microplate reader (Dynatech, Denkendorf, Germany) and the relative amount of viable cells in comparison to cells cultured without the addition of valproic acid or antibody-toxins was calculated.

The test system of experiment [2] is Renca-lacZ/EGFR renal carcinoma cells.
Excerpt: as §1, §2

For experiment [3], the system named is Renca-lacZ/EGFRvIII renal carcinoma cells.
Excerpt: as §1, §2

Where [4] appears, read: 1 mM valproic acid + 1 ng/ml scFv(14E1)-ETA.
The mark [5] stands for this setting: single reagent, valproic acid 1 mM, scFv(14E1)-ETA 1 ng/ml.

As for `CCCC(CCC)C(=O)O` [VPA, 2-propylpentanoic acid], the “cell viability, combination treatment” value in experiment [1] (1 mM valproic acid + 10 ng/ml scFv(FRP5)-ETA), in experiment [2] (setting [4]) and in experiment [3] (setting [4]) was “pronounced additive therapeutic effect” each time. For the same molecule, the cell viability result was “inhibit the viability” in experiment [1] (single reagent, valproic acid 1 mM, scFv(FRP5)-ETA 10 ng/ml); “inhibit the viability” in experiment [2] (setting [5]); “inhibit the viability” in experiment [3] (setting [5]).
